Measurements: ChEMBL document CHEMBL1275486, “Kinetic characterization of VIM-7, a divergent member of the VIM metallo-beta-lactamase family” (Antimicrob Agents Chemother, 2008)

Tests used:
Escherichia coli [1] = assay: Activity of Escherichia coli beta-lactamase VIM-1 by spectrophotometry
Escherichia coli [2] = assay: Ratio of Kcat to Km for Escherichia coli beta-lactamase VIM-1 by spectrophotometry

C[C@H]1[C@H](NC(=O)/C(=N\OC(C)(C)C(=O)O)c2csc(N)n2)C(=O)N1S(=O)(=O)O
Km (Escherichia coli [1]): > 1000 µM | kcat (Escherichia coli [1]): < 0.01 s⁻¹

C[C@]1(Cn2ccnn2)[C@H](C(=O)O)N2C(=O)C[C@H]2S1(=O)=O
Km (Escherichia coli [1]): 340 µM | kcat (Escherichia coli [1]): 5.3 s⁻¹ | kcat/Km (Escherichia coli [2]): 16000 M⁻¹ s⁻¹

O=C(Cc1cccs1)N[C@@H]1C(=O)N2C(C(=O)O)=C(/C=C/c3ccc([N+](=O)[O-])cc3[N+](=O)[O-])CS[C@H]12
Km (Escherichia coli [1]): 17 µM | kcat (Escherichia coli [1]): 95 s⁻¹ | kcat/Km (Escherichia coli [2]): 5.6e+06 M⁻¹ s⁻¹
